Data published in patent publication US5211657A, “Laminin a chain deduced amino acid sequence, expression vectors and active synthetic peptides” (The United States Government as represented by the …, priority 1988, dated 1993).
One block for each substance: values may come before it.

Tests used:
HUVEC (endothelia cell) = assay: Cell attachment and spreading on coated dish (Table IV); type: cell-based, Human; details: endothelial cells
Protocol: (§1) A further aspect of the invention provides synthetic peptides from the deduced amino acid sequence of the cDNA sequence for the A chain. These synthetic peptides can be synthesized by any suitable method such as one previously used by our group (Graf et al (1987) Cell 48:989). A variety of synthetic peptides are tested for biological activity such as promoting cell adhesion, migration, growth and preventing invasion of tumor cells (see locations and sequences of the active peptides in FIG. 14 and Table III). […] A: increasing amounts of peptide were coated onto a 24 well dish in DMEM for 2 hours. The unbound peptide was removed and the wells were incubated with DMEM containing 3% BSA before the addition of cells. B and C: Morphological appearance of cells attached on peptide and laminin substrates. In the absence of peptides or laminin, few cells were attached. Table III is shown below.
(§2) This peptide is active with various cells and its activity can be equal to that of laminin itself in terms of the total number of cells that can attach to surfaces coated with the peptide. […] Table IV is shown below.

[1] = tested on: endothelial cell binding to laminin; assay: Competition with intact laminin for endothelial cell binding; type: cell-based; details: endothelial cells
Source text: Many of the same cells which recognize peptide PA22-2 and YIGSR also recognize and bind to PA21 and PA26 but the degree of binding is quite different. […] Since the sequence of PA36 is unique to laminin, the response of endothelial cells to PA36 is likely to be specific to the peptide.

[2] = tested on: neural cell lines (PC-12, NG108-15) and primary cultures of neural cells; details: background statement; cited from earlier work
EGF-like activity = details: personal communication; cited from earlier work
[3] = tested on: HT-1080 fibrosarcoma cells; details: background statement; cited from earlier work
various cells = assay: Cell attachment to peptide coated on plastic; type: cell-based
Protocol: as §1, §2

[4] = tested on: cells in culture and tumor cells in vivo; assay: Various biological activities with cells in culture and tumor cells in vivo (comparison of derivatives); details: all presently found activities
[5] = tested on: HT-1080 fibrosarcoma cells; assay: Collagenase production (collagen IV degrading enzymes in conditioned medium); type: cell-based; details: HT-1080 cells treated for 6 hours
Protocol: This enzyme is thought to be important in cancer where its production is correlated with the invasive and metastatic activity of malignant tumor cells. In fact, degradation of basement membranes by collagenase IV is a necessary step in the metastatic process. […] The cells were treated for 6 hours with various amounts of the peptide and then the conditional medium was assayed for the production of collagen IV degrading enzymes. The effect is dose-dependent and is not reproduced by any other peptide tested to date. The importance of localizing this activity to peptide PA22-2 is that it will now be possible to more precisely define the molecular events involved in the metastatic process. Competitive inhibitors of this activity can be readily designed by modification of the composition of the active peptide i.e. Dasmano acids, cyclic forms etc. There may also be situations where the production of the enzyme could be advantageous such as in speeding the migration of leukocytes to sites of infection.

cell migration = assay: Cell migration; type: cell-based
B16-F10 and PC12 cells = assay: Cell growth; type: cell-based
[6] = tested on: laminin-mediated cell adhesion; assay: Blocking of laminin-mediated cell attachment by soluble peptide; type: cell-based; details: laminin coated dish; peptide added with cells; one and a half hours
Protocol: Laminin was coated on the dish as described above, then peptide togehter with cells were added to the dishes and cell adhesion after one and a half hours was determined.

[7] = tested on: Human umbilical vein endothelial cells; assay: Endothelial cell tube formation on reconstituted basement membrane; type: cell-based
Protocol: Human umbilical vein endothelial cells when coated on a reconstituted basement membrane substrate rapidly (by 12 hours) organize into capillary-like structures (see FIG. 18A). […] It may have a potential clinical use in blocking blood vessel formation as for example, during the vascularization of tumors and in diabetic retinopathy (ex diabetic retinopathy or Kaposi sarcoma). […] 18A: Morphology of cells. Cells were plated on a reconstituted basement membrane substrate and after 2 and 18 hours it is apparent that the cells line up into capillary-like structures. […] 18B: Adhesion to peptides. 18C: peptide inhibition of tube formation.

[8] = tested on: neural cell lines (PC-12, NG108-15) and primary cultures of neural cells; assay: Neurite outgrowth / process formation on coated peptide; type: cell-based; details: peptide coated on plastic dish
Protocol: In fact, laminin promotes regeneration faster and over greater distances than any other factor described to date. […] It is active in a dose-dependent manner and is active both with neural cell lines (PC-12 FIGS. 17A and B and NG108-15) and with primary cultures of neural cells both from the peripheral and the central nervous system. The processes formed appear identical to those observed with intact laminin (see FIG. 17A).
The assay was carried out in a similar manner to the cell adhesion assay. 17A: Morphology after 4 hours. 17B: Dose response curve showing number of processes formed. Cells were directly counted from at least 10 microscopic fields.

B16F10 (melanoma) = assay: Cell attachment and spreading on coated dish (Table IV); type: cell-based
Protocol: as §1, §2

HT1080 (fibrosarcoma) = assay: as above; type: cell-based; details: HT-1080
Protocol: as §1, §2

B16F10 Melonoma Cells = assay: Lung tumor formation after tail vein injection of B16F10 melanoma cells with peptide; type: in vivo, mice; details: for Number of Tumors/animal: lung surface tumors after 3 weeks, no peptide: 26
Source text: It is well known that tumor cells must attach degrade, and migrate through basement membranes in order to spread to distant sites. Laminin is known to increase the metastic phenotype of tumor cells and the number of tumors formed in mice. Using a line of B16 melanoma cells which specifically colonize the lung when injected into mouse tail vein, we have studied the effect of peptide PA22-2 on the formation of lung tumors.
In these studies, various amounts of peptide PA22-2 are mixed with the B16F10 melanoma cells (5×10^4) and injected into mice via the tail vein. Eight mice are injected for each concentration of test peptide. After 2-3 weeks, the mice are sacrificed and the number of […] colonies on the lung surface are counted.
10^5 melanoma cells in a final volume of 0.2 ml of Dulbecco's
modification of Eagle's medium (DMEM) containing the indicated amount and
type of peptide were injected in the tail vein. Eight mice were in each
test group. After 3 weeks, the mice were sacrificed, lungs were removed.
The number of tumors on the surface of the lungs was determined by using
Each group contained 8 mice which were injected with […] B16F10 Melanoma cells via the tail vein in a final volume of 0.2 DMEM containing the designated amount of peptide. After three weeks, the animals were sacrificed and the number of colonies on the surface of the lungs was determined.

Substance: CSKCQAGTFALR [PA36]
Endothelial cell adhesion to peptide (HUVEC (endothelia cell)): specifically active with endothelial cells for cell adhesion
Competition with intact laminin for endothelial cell binding to laminin [1]: effectively competes with intact laminin for endothelial cell binding to laminin

Substance: Laminin: large glycoprotein localized to basement membranes, composed of three chains A, B1 and B2; prepared from EHS tumor
Neurite outgrowth promoting activity (background) [2]: very active in promoting neurite outgrowth
EGF-like activity (EGF-like activity): exert EGF-like growth factor activity
Collagenase production / release (background) [3]: induces the production of collagenase IV

Substance: XFALRGDNPQG [PA26]
Cell adhesion / attachment to coated peptide (various cells): support the attachment of many cells

Substance: XGQIKKSPAVKVT [pA31-2]
Cell adhesion / attachment to coated peptide (various cells): has some cell attachment activity

Substance: XGQIKKSPAVKVTHFKG [pA31-1]
Cell adhesion / attachment to coated peptide (various cells): active for cell attachment

Substance: XIKVAVSADR [PA22-4]
Activity relative to PA22-2 [4]: almost equally active

Substance: XRKQAASIKVAVS [PA22-3]
Activity relative to PA22-2 [4]: almost equally active

Heparin binding (Heparin binding): promote activity to bind heparin
Substance: XSRARQAASIKVAVSADR [PA22-2]
Cell adhesion / attachment to coated peptide (various cells): promotes the adhesion of various epithelial cells in a rapid dose-dependent manner
Production of collagenase [5]: increase in the production of collagenase to levels comparable to those observed with intact laminin
Cell migration (cell migration): active
Cell growth (B16-F10 and PC12 cells): stimulate growth
Blocking of laminin-mediated cell adhesion [6]: can complete (i.e. block) laminin-mediated cell adhesion
Adhesion of HUVEC [7]: does not alter the adhesion of these cells
Formation of capillary-like structures (tube formation) ([7]; HUVEC on reconstituted basement membrane): block the formation of capillary-like structures
Neurite outgrowth promoting activity [8]: mimics the neurite promoting activity of laminin
Spreading on substrates coated with the peptide (B16F10 (melanoma)): spreading is observed
Spreading on substrates coated with the peptide (HT1080 (fibrosarcoma)): spreading is not observed
Number of Tumors/animal (B16F10 Melonoma Cells; 0.5 mg peptide injected with melanoma cells in tail vein): 44
Number of Tumors/animal (B16F10 Melonoma Cells; 1 mg peptide injected with melanoma cells in tail vein): 53
Increase in the number of lung tumors (B16F10 Melonoma Cells; 1 mg/mouse): two-fold increase
